Assay results taken from patent US20240182420A1, “MICROBIOCIDAL ISONICOTINIC AMIDE DERIVATIVES” (SYNGENTA CROP PROTECTION AG, priority 2021, published 2024).

Experiments:
[1] = system: Monographella nivalis syn. Microdochium nivale, Fusarium nivale; assay: Monographella nivalis syn. Microdochium nivale (snow mould, foot rot), liquid culture growth inhibition; format: cell-based; conditions: PDB nutrient broth, 24° C., 72 hrs, 620 nm, vs untreated control
Experimental: (§1) Conidia of the fungus from cryogenic storage were directly mixed into nutrient broth (PDB potato dextrose broth). A DMSO solution of the test compounds was placed into a microtiter plate (96-well format) and the nutrient broth containing the fungal spores was added to it. The test plates were incubated at 24° C. and the inhibition of growth was determined photometrically after 72 hrs at 620 nm.

[2] = system: Botryotinia fuckeliana syn. Botrytis cinerea; assay: Botryotinia fuckeliana syn. Botrytis cinerea (grey mold on tomato), tomato plants; format: in vivo; conditions: tomato plants cv. Roter Gnom, inoculated two days after application, leaf area covered by disease 5-6 days after application
Experimental: 4-week old tomato plants cv. Roter Gnom are treated sprayed in a spray chamber with the formulated test compound diluted in water. The test plants are inoculated by spraying them with a spore suspension two days after application. The inoculated test plants are incubated at 20° C. and 95% rh in a greenhouse and the percentage leaf area covered by disease is assessed when an appropriate level of disease appears on untreated check plants (5-6 days after application).

[3] = system: Botryotinia fuckeliana syn. Botrytis cinerea; assay: Botryotinia fuckeliana syn. Botrytis cinerea (gray mould), liquid culture growth inhibition; format: cell-based; conditions: PDB nutrient broth, 24° C., 72 hrs, photometric, vs untreated control
Experimental: as §1, with “hrs.” for “hrs at 620 nm.”

[4] = system: Glomerella lagenarium syn Colletotrichum lagenarium; assay: Glomerella lagenarium syn. Colletotrichum lagenarium (anthracnose), liquid culture growth inhibition; format: cell-based; conditions: Colletotrichum orbiculare, PDB nutrient broth, 24° C., 72 hrs, 620 nm, vs untreated control
Experimental: as §1

SMILES | inhibition of growth at 20 ppm [1] [%] | pest or weed control at 200 ppm [2] [%] | inhibition of growth at 20 ppm [3] [%] | inhibition of growth at 20 ppm [4] [%]
O=C(NCC1(c2ccc(F)cc2)CCC1)c1cc(Cl)ncc1Oc1cccc(C2CC2)c1 [Compound 1.28, 2-chloro-5-(3-cyclopropyl-phenoxy)-N-[[1-(4-fluorophenyl)cyclobutyl]methyl] pyridine-4-carboxamide] | ≥ 80 |  |  | 
COc1cccc(Oc2cnc(Cl)cc2C(=O)NCC(F)c2ccc(Cl)cc2Cl)c1 (centres unmarked) [Compound 1.61, 2-chloro-N-[2-(2,4-dichlorophenyl)-2-fluoro-ethyl]-5-(3-methoxyphenoxy) pyridine-4-carboxamide] |  | ≥ 50 | ≥ 80 | ≥ 80
C#Cc1cccc(Oc2cnc(Br)cc2C(=O)NCC(F)c2ccc(C)cc2C)c1 (centres unmarked) [Compound 1.43, 2-bromo-N-[2-(2,4-dimethylphenyl)-2-fluoro-ethyl]-5-(3-ethynylphenoxy) pyridine-4-carboxamide] |  | ≥ 50 | ≥ 80 | ≥ 80
O=C(NCC(F)c1ccc(Cl)cc1Cl)c1cc(Cl)ncc1Oc1cccc(C2CC2)c1 (centres unmarked) [Compound 1.16, 2-chloro-5-(3-cyclopropyl-phenoxy)-N-[2-(2,4-dichlorophenyl)-2-fluoro-ethyl]pyridine-4-carboxamide] |  | ≥ 50 | ≥ 80 | ≥ 80
CCc1ccc(C(F)CNC(=O)c2cc(Cl)ncc2Oc2cccc(C3CC3)c2)c(F)c1 (centres unmarked) [Compound 1.80, 2-chloro-5-(3-cyclopropyl-phenoxy)-N-[2-(4-ethyl-2-fluoro-phenyl)-2-fluoro-ethyl]pyridine-4-carboxamide] |  | ≥ 50 | ≥ 80 | ≥ 80
O=C(NCC(F)c1ccc(F)cc1F)c1cc(Cl)ncc1Oc1cccc(C2CC2)c1 (centres unmarked) [Compound 1.58, 2-chloro-5-(3-cyclopropyl-phenoxy)-N-[2-(2,4-difluorophenyl)-2-fluoro-ethyl]pyridine-4-carboxamide] |  | ≥ 50 | ≥ 80 | ≥ 80
O=C(NCC(F)c1ccc(Cl)cc1Cl)c1cc(C(F)(F)F)ncc1Oc1cccc(C2CC2)c1 (centres unmarked) [Compound 1.9, 5-(3-cyclopropyl-phenoxy)-N-[2-(2,4-dichlorophenyl)-2-fluoro-ethyl]-2-(trifluoromethyl) pyridine-4-carboxamide] |  | ≥ 50 | ≥ 80 | ≥ 80
O=C(NCCc1ccc(Cl)cc1Cl)c1c(Cl)cncc1Oc1cccc(C2CC2)c1 [Compound 1.21, 3-chloro-5-(3-cyclopropyl-phenoxy)-N-[2-(2,4-dichlorophenyl)ethyl]pyridine-4-carboxamide] |  | ≥ 50 | ≥ 80 | ≥ 80
Cc1ccccc1CCNC(=O)c1cc(Cl)ncc1Oc1cccc(C2CC2)c1 [Compound 1.36, 2-chloro-5-(3-cyclopropyl-phenoxy)-N-[2-(o-tolyl)ethyl]pyridine-4-carboxamide] | ≥ 80 |  |  | 
O=C(NCC(F)c1ccc(Cl)cc1Cl)c1c(F)cncc1Oc1cccc(C2CC2)c1 (centres unmarked) [Compound 1.6, 3-(3-cyclopropyl-phenoxy)-N-[2-(2,4-dichlorophenyl)-2-fluoro-ethyl]-5-fluoro-pyridine-4-carboxamide] |  | ≥ 50 | ≥ 80 | ≥ 80
O=C(NC1(Cc2ccccc2)CC1)c1cc(Cl)ncc1Oc1cccc(C2CC2)c1 [Compound 1.49, N-(1-benzylcyclopropyl)-2-chloro-5-(3-cyclopropylphenoxy) pyridine-4-carboxamide] | ≥ 80 |  |  | 
COc1cncc(Oc2cccc(C3CC3)c2)c1C(=O)NCC(F)c1ccc(Cl)cc1Cl (centres unmarked) [Compound 1.91, 3-(3-cyclopropyl-phenoxy)-N-[2-(2,4-dichlorophenyl)-2-fluoro-ethyl]-5-methoxy-pyridine-4-carboxamide] |  | ≥ 50 | ≥ 80 | ≥ 80
CCc1cccc(Oc2cnc(Cl)cc2C(=O)NCC(F)c2ccc(Cl)cc2Cl)c1 (centres unmarked) [Compound 1.66, 2-chloro-N-[2-(2,4-dichlorophenyl)-2-fluoro-ethyl]-5-(3-ethylphenoxy) pyridine-4-carboxamide] |  |  | ≥ 80 | ≥ 80
O=C(NCCc1ccc(Cl)cc1Cl)c1cc(Cl)ncc1Oc1cccc(C2CC2)c1 [Compound 1.15, 2-chloro-5-(3-cyclopropyl-phenoxy)-N-[2-(2,4-dichlorophenyl)ethyl]pyridine-4-carboxamide] |  | ≥ 50 | ≥ 80 | ≥ 80
O=C(NCC(F)c1ccc(Cl)cc1Cl)c1cc(C2CC2)ncc1Oc1cccc(C2CC2)c1 (centres unmarked) [Compound 1.22, 2-cyclopropyl-5-(3-cyclopropyl-phenoxy)-N-[2-(2,4-dichlorophenyl)-2-fluoro-ethyl]pyridine-4-carboxamide] |  | ≥ 50 | ≥ 80 | ≥ 80
Cc1ccc(CCNC(=O)c2cc(Cl)ncc2Oc2cccc(C3CC3)c2)cc1 [Compound 1.53, 2-chloro-5-(3-cyclopropyl-phenoxy)-N-[2-(p-tolyl)ethyl]pyridine-4-carboxamide] |  |  | ≥ 80 | ≥ 80
Cc1cncc(Oc2cccc(C3CC3)c2)c1C(=O)NC[C@@H](F)c1ccc(Cl)cc1Cl [Compound 1.93, 3-(3-cyclopropyl-phenoxy)-N-[(2S)-2-(2,4-dichlorophenyl)-2-fluoro-ethyl]-5-methyl-pyridine-4-carboxamide] |  |  | ≥ 80 | ≥ 80
Cc1ccc(CCNC(=O)c2cc(Cl)ncc2Oc2cccc(C3CC3)c2)c(C)c1 [Compound 1.77, 2-chloro-5-(3-cyclopropyl-phenoxy)-N-[2-(2,4-dimethylphenyl)ethyl]pyridine-4-carboxamide] |  |  | ≥ 80 | ≥ 80
CC(C)=Cc1ncc(Oc2cccc(C3CC3)c2)c(C(=O)NCC(F)c2ccc(Cl)cc2Cl)c1O (centres unmarked) [Compound 1.89, 5-(3-cyclopropyl-phenoxy)-N-[2-(2,4-dichlorophenyl)-2-fluoro-ethyl]-3-hydroxy-2-(2-methylprop-1-enyl)pyridine-4-carboxamide] |  |  | ≥ 80 | ≥ 80
O=C(NCC(F)c1ccc(Cl)cc1Cl)c1ccncc1Oc1cccc(C2CC2)c1 (centres unmarked) [Compound 1.11, 3-(3-cyclopropyl-phenoxy)-N-[2-(2,4-dichlorophenyl)-2-fluoro-ethyl]pyridine-4-carboxamide] |  | ≥ 50 |  | ≥ 80
O=C(NCCc1ccc(Cl)cc1Cl)c1cc(Cl)ncc1Oc1cccc(Cl)c1 [Compound 1.68, 2-chloro-5-(3-chlorophenoxy)-N-[2-(2,4-dichlorophenyl)ethyl]pyridine-4-carboxamide] |  |  | ≥ 80 | ≥ 80
O=C(NCCc1ccc(Cl)cc1)c1cc(Cl)ncc1Oc1cccc(C2CC2)c1 [Compound 1.24, 2-chloro-N-[2-(4-chlorophenyl)ethyl]-5-(3-cyclopropyl-phenoxy)pyridine-4-carboxamide] |  |  | ≥ 80 | ≥ 80
C#Cc1cccc(Oc2cnc(C)cc2C(=O)NCC(F)c2ccc(C)cc2C)c1 (centres unmarked) [Compound 1.38, N-[2-(2,4-dimethylphenyl)-2-fluoro-ethyl]-5-(3-ethynylphenoxy)-2-methyl-pyridine-4-carboxamide] |  | ≥ 50 | ≥ 80 | 
CS(=O)(=O)c1cc(C(=O)NCC(F)c2ccc(Cl)cc2Cl)c(Oc2cccc(C3CC3)c2)cn1 (centres unmarked) [Compound 1.10, 5-(3-cyclopropyl-phenoxy)-N-[2-(2,4-dichlorophenyl)-2-fluoro-ethyl]-2-methylsulfonyl-pyridine-4-carboxamide] |  | ≥ 50 | ≥ 80 | ≥ 80
C#Cc1ccc(C(F)CNC(=O)c2cc(Cl)ncc2Oc2cccc(C3CC3)c2)c(F)c1 (centres unmarked) [Compound 1.82, 2-chloro-5-(3-cyclopropyl-phenoxy)-N-[2-(4-ethynyl-2-fluoro-phenyl)-2-fluoro-ethyl]pyridine-4-carboxamide] |  | ≥ 50 | ≥ 80 | ≥ 80
COc1ccc(CCNC(=O)c2cc(Cl)ncc2Oc2cccc(C3CC3)c2)cc1 [Compound 1.35, 2-chloro-5-(3-cyclopropyl-phenoxy)-N-[2-(4-methoxyphenyl)ethyl]pyridine-4-carboxamide] |  | ≥ 50 | ≥ 80 | ≥ 80
Cc1cccc(Oc2cnc(Cl)cc2C(=O)NCCc2ccc(Cl)cc2Cl)c1 [Compound 1.4, 2-chloro-N-[2-(2,4-dichlorophenyl)ethyl]-5-(3-methylphenoxy)pyridine-4-carboxamide] |  | ≥ 50 | ≥ 80 | 
